# Patent US20240293380A1, “PROTEASE INHIBITORS AND METHODS OF USE” (priority 2021, published 2024)
# Target: SARS-CoV-2 3CLpro (Severe acute respiratory syndrome coronavirus 2 (2019-nCoV) (SARS-CoV-2), UniProt P0DTD1)
# Assay type: biochemical
Compound,IC50 [nM],SARS-CoV-2 IC50 (nM)
O=C(Cc1cccnc1)N(Cc1cccc(Cl)c1)c1ccc(-c2c[nH]cn2)cc1 [Compound 44],414,
C[C@H](c1cc(F)cc(Cl)c1)N(C(=O)Cc1nnc2ccccn12)c1ccc(-c2c[nH]cn2)cc1 [Compound 13],587,
CC(C)(C)CN(C(=O)Cc1cncc2ccccc12)c1ccc(-c2c[nH]cn2)cc1 [Compound 45],356,
CC(C)(C)NC(=O)C(c1cc(F)cc(F)c1)N(C(=O)Cc1cncc2ccccc12)c1ccc(-c2c[nH]cn2)cc1 (centres unmarked) [Compound 64],231,
Cc1ccc2nnc(CC(=O)N(Cc3cc(F)cc(Cl)c3)c3ccc(-c4c[nH]cn4)cc3)n2n1 [Compound 42],250,
C[C@H](c1cc(F)cc(Cl)c1)N(C(=O)Cc1cncc2ccccc12)c1ccc(-c2c[nH]cn2)cc1 [Compound 14],76,
O=C(Cc1cncc2ccccc12)N(Cc1cc(F)cc(OC(F)(F)F)c1)c1ccc(-c2c[nH]cn2)cc1 [Compound 61],113,
O=C(Cc1cncc2ccccc12)N(Cc1cc(F)cc(F)c1)c1ccc(C2=CCNC2)cc1 [Compound 56],139,
O=C(Cc1cccnn1)N(Cc1cc(F)cc(F)c1)c1ccc(-c2c[nH]cn2)cc1 [Compound 31],506,
COc1cc(Cl)cc(CN(C(=O)Cc2cncc3ccccc23)c2ccc(-c3c[nH]cn3)cc2)c1 [Compound 19],100,
"O=C(Cc1nnc2ccccn12)N(Cc1cccc(Cl)c1)c1ccc(-c2cn[nH]c2)cc1 [Compound 1, N-[(3-chlorophenyl)methyl]-N-[4-(1H-pyrazol-4-yl)phenyl]-2-([1,2,4]triazolo[4,3-a]pyridin-3-yl)acetamide]",365,
O=C(Cc1nnc2ccccn12)N(Cc1cc(F)cc(F)c1)c1ccc(-c2c[nH]cn2)cc1 [Compound 27],209,
Cc1ccc2nnc(CC(=O)N(Cc3cc(F)cc(F)c3)c3ccc(-c4c[nH]cn4)cc3)n2n1 [Compound 41],604,
O=C1CN(c2ccc(N(Cc3cc(F)cc(F)c3)C(=O)Cc3cncc4ccccc34)cc2)CCN1 [Compound 36],370,
O=C(Cc1cncc(C2CC2)c1)N(Cc1cc(F)cc(F)c1)c1ccc(-c2c[nH]cn2)cc1 [Compound 67],161,
O=C(Cc1cncc2ccccc12)N(Cc1cncc(Cl)c1)c1ccc(-c2c[nH]cn2)cc1 [Compound 17],101,
"O=C(Cc1cccnn1)N(Cc1cccc(Cl)c1)c1ccc(-c2cn[nH]c2)cc1 [Compound 6, N-[(3-chlorophenyl)methyl]-N-[4-(1H-pyrazol-4-yl)phenyl]-2-pyridazin-3-yl-acetamide]",5000,
"O=C(Cc1cnc2ccccn12)N(Cc1cccc(Cl)c1)c1ccc(-c2cn[nH]c2)cc1 [Compound 4, N-[(3-chlorophenyl)methyl]-2-imidazo[1,2-a]pyridin-3-yl-N-[4-(1H-pyrazol-4-yl)phenyl]acetamide]",1150,
CC(c1cc(F)cc(F)c1)N(C(=O)Cc1cncc2ccccc12)c1ccc(-c2c[nH]cn2)cc1 (centres unmarked) [Compound 30],114,
O=C(Cc1cncc(C2CC2)c1)N(Cc1cc(F)cc(Cl)c1)c1ccc(C2CNC2)cc1 [Compound 79],112,
COc1ccc(F)cc1CN(C(=O)Cc1cncc2ccccc12)c1ccc(-c2c[nH]cn2)cc1 [Compound 53],179,
"O=C(Cc1nnc(-c2ccccc2)o1)N(Cc1cccc(Cl)c1)c1ccc(-c2cn[nH]c2)cc1 [Compound 7, N-[(3-chlorophenyl)methyl]-2-(5-phenyl-1,3,4-oxadiazol-2-yl)-N-[4-(1H-pyrazol-4-yl)phenyl]acetamide]",,Inactive
NC(=O)c1ccc(N(Cc2cc(F)cc(F)c2)C(=O)Cc2cncc3ccccc23)cc1 [Compound 51],100,
O=C(Cc1cnccn1)N(Cc1cc(F)cc(Cl)c1)c1ccc(-c2c[nH]cn2)cc1 [Compound 55],2040,
O=C(Cc1cncc2ccccc12)N(Cc1cccc(F)c1F)c1ccc(-c2c[nH]cn2)cc1 [Compound 25],184,
N#Cc1ccc(N(Cc2cc(F)cc(F)c2)C(=O)Cc2cncc3ccccc23)cc1 [Compound 38],1250,
